Among the data in patent publication US8455495B2, “Pyridazino-pyridinone compounds and methods of use” (Amgen Inc., priority 2008, dated 2013) are IC50 and ED50 values, retold here.

The structures appear in SMILES notation.

The target in one experiment is recombinant human p38α (Homo sapiens, UniProt Q16539). The experiment in a line: Purified and activated recombinant human p38α HTRF assay. It counts as biochemical. The conditions noted are these: 1 nM p38α, 50 μM ATP, GST-ATF2 substrate, read-out: p38a IC50.
For experiment [1], the system named is production of IL-1β, IL-6, and TNF-α by PBMC activated with LPS. The experiment in a line: Lipopolysaccharide-activated PBMC cytokine production assay. The format is cell-based. The conditions noted are these: Homo sapiens, LPS 100 ng/mL, 18 hours, read-out: IC50 in PBMC cytokine production assay.
Experiment [2] relates to TNF-α production by LPS-activated THP1 cells. The experiment in a line: Lipopolysaccharide-activated THP1 cell TNF production assay. The format is cell-based. The conditions noted are these: Homo sapiens, THP-1; THP1 cells, LPS, 3 hours; read-out: IC50 in THP-1 cellular TNF production assay.
The test system of experiment [3] is LPS-induced TNF-α production. The experiment in a line: Inhibition of LPS-induced TNF-α production in rats. The conditions noted are these: Rattus norvegicus; rats, compound PO 60 minutes prior to LPS IV; plasma TNF-α 90 minutes after LPS; read-out: ED50, inhibition of LPS-induced TNF-α production. It counts as in vivo. The procedure: Inhibition of LPS-Induced TNF-α Production Rats
LPS was diluted in PBS (100 μg per rat). Rats (n=6) were pretreated with vehicle or compound (0.03, 0.1, 0.3 and 1.0 mg/kg, PO) 60 minutes prior to the injection of LPS (100 μg per rat/IV, tail vein). Blood was harvested via decapitation 90 minutes following the administration of LPS. Blood was centrifuged at 12,000 rpm for 12 minutes to obtain plasma. Plasma samples were stored at −80 C. TNF-α levels were determined by ELISA for treatment groups that received LPS. Rat TNF-α levels were analyzed using rat TNF-α CytoSet kit from Biosource International. ELISA was completed according to the manufacturer's instructions. The concentration of TNF-α was interpolated from absorbance using the standard curve generated. For each individual sample, the TNF value from the dilution series that fell in the most linear portion of the standard curve was chosen and used for data analysis. The limit of quantitation of the ELISA was 1,000 pg/mL.

Experiment [4] has as its system collagen-induced arthritis. The experiment in a line: Collagen-induced arthritis (CIA) model in rats. The conditions noted are these: Rattus norvegicus, 168 h; rats, treated for 7 days from onset of arthritis; read-out: ED50 in rat CIA model. The format is in vivo. The procedure: Collagen-induced Arthritis (CIA) Model in Rats
Porcine type II collagen (10 mg) was dissolved in 0.1N acetic acid (5 mL) two days prior to use on a rotating plate in the refrigerator. Subsequently, collagen was emulsified 1:1 with Freund's incomplete adjuvant using an emulsification needle and glass syringes yielding a final concentration of 1 mg/mL.
Disease was induced in each animal by intradermal injection of emulsified collagen in IFA at 10 different sites (100 μL per site) over the back. The clinical onset of arthritis varied between days 10 to 12 as indicated by hind paw swelling and ambulatory difficulties. At onset (defined as Day 0), rats were randomized to treatment groups and therapy was initiated with drug or vehicle control as noted in table above. Rats were treated for 7 days and were sacrificed on Day 8.

recombinant human p38α, sequence (Q16539 whole entry): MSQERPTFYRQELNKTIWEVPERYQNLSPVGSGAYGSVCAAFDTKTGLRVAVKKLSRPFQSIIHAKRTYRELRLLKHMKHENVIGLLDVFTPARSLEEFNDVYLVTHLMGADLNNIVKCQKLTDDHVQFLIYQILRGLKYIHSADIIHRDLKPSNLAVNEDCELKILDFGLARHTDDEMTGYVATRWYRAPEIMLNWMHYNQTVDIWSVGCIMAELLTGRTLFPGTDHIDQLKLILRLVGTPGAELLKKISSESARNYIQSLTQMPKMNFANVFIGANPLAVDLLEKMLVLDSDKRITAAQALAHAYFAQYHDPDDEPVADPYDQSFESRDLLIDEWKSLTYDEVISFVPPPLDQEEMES

Take `Cc1c(F)cc(C(=O)NC2CC2)cc1-c1cc2cnnc(-c3ccccc3Cl)c2n(C)c1=O` [Example 14, 3-(8-(2-chlorophenyl)-1-methyl-2-oxo-1,2-dihydropyrido[2,3-d]pyridazin-3-yl)-N-cyclopropyl-5-fluoro-4-methylbenzamide]: the half-inhibitory concentration (IC50) (in general, the concentration at which inhibition is half-maximal) at recombinant human p38α was 2.4 nM; in experiment [1], ≤ 1000 nM; in experiment [2], ≤ 1000 nM. The results for the ED50 in experiment [3] and in experiment [4] were 0.02 mg/kg and 0.03 mg/kg, respectively.
